# Measured values taken from PubChem BioAssay (NCI).
# Several values for one entry are separate records, joined by “and”; a condition that tells them apart may be missing. Identical values can stand only once.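 Tested at 5 concentrations; 48 h exposure; 96-well plates; endpoints linearly interpolated, else capped at highest concentration. GI50 is the concentration that inhibits growth by half. TGI is the concentration that stops growth completely.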
# Assays:
# Test in all cases: DTP human tumour cell line panel, 48 h
# OVCAR-3 ovarian = tested on: OVCAR-3 ovarian
# SR leukemia = tested on: SR leukemia
# MALME-3M melanoma = tested on: MALME-3M melanoma
# KM12 colon = tested on: KM12 colon
# HCT-116 colon = tested on: HCT-116 colon
# MOLT-4 leukemia = tested on: MOLT-4 leukemia
# SN12C renal = tested on: SN12C renal
# RPMI-8226 leukemia = tested on: RPMI-8226 leukemia
# OVCAR-4 ovarian = tested on: OVCAR-4 ovarian
# OVCAR-8 ovarian = tested on: OVCAR-8 ovarian
SMILES,TGI (OVCAR-3 ovarian),TGI (SR leukemia),TGI (MALME-3M melanoma),TGI (KM12 colon),TGI (HCT-116 colon),TGI (MOLT-4 leukemia),TGI (SN12C renal),TGI (RPMI-8226 leukemia),TGI (OVCAR-4 ovarian),TGI (OVCAR-8 ovarian),GI50 (OVCAR-3 ovarian),GI50 (SR leukemia),GI50 (MALME-3M melanoma),GI50 (KM12 colon),GI50 (HCT-116 colon),GI50 (MOLT-4 leukemia),GI50 (SN12C renal),GI50 (RPMI-8226 leukemia),GI50 (OVCAR-4 ovarian),GI50 (OVCAR-8 ovarian)
O=C1CCCC2=C(N1)C(=O)C=CC2=O,64.4 µM,57.8 µM,56.6 µM,36.7 µM,49.1 µM,31.5 µM,> 69.2 µM,60.2 µM,67.6 µM,64.2 µM,,,,,,,,,,
CCOc1ccccc1N=Nc1c(-c2ccccc2)nn(C(=O)CC(=O)Nc2cccc(Cl)c2)c1-c1ccccc1,> 100 µM,> 100 µM,> 100 µM,> 100 µM,> 100 µM,> 100 µM,> 100 µM,> 100 µM,> 100 µM,> 100 µM,,,,,,,,,,
CN(C)CCCN(c1nc(C(Cl)(Cl)Cl)ns1)c1nc(C(Cl)(Cl)Cl)ns1,4.09 µM,3.53 µM,5.01 µM,3.44 µM,3.34 µM,4.23 µM,11.6 µM,5.35 µM,5.58 µM,3.52 µM,2.01 µM,1.49 µM,2.18 µM,1.8 µM,1.66 µM,1.93 µM,3.42 µM,2.19 µM,2.21 µM,1.77 µM
CCOC(=O)c1c(C)nc2ccc(Cl)cc2c1-c1ccccc1,43.1 µM,48.5 µM,42.3 µM,56.8 µM,28.8 µM,43.4 µM,32.7 µM,40 µM,66.6 µM,> 100 µM,19 µM,18.4 µM,17.6 µM,19.8 µM,12.3 µM,16.3 µM,16.8 µM,15.9 µM,20.6 µM,26.7 µM
CNNCc1ccc(C(=O)NC(C)C)cc1,> 472 µM,> 375 µM,> 500 µM,> 500 µM,> 500 µM,426 µM and > 500 µM,> 500 µM,> 500 µM,> 500 µM,> 500 µM,,,,,,> 500 µM,,,,
COC(=O)C1=CN=C(C(=O)OC)NN1,> 100 µM,> 100 µM,> 100 µM,> 100 µM,> 100 µM,> 100 µM,> 100 µM,> 100 µM,> 100 µM,> 100 µM,,,,,,,,,,
S=c1nc2[nH]ncc2c(N/N=C/c2ccccc2)[nH]1,> 100 µM,> 100 µM,> 100 µM,> 100 µM,> 100 µM,> 100 µM,> 100 µM,> 100 µM,> 100 µM,> 100 µM,48.5 µM,> 100 µM,> 100 µM,> 100 µM,87.9 µM,> 100 µM,> 100 µM,60.6 µM,> 100 µM,> 100 µM
Cn1cccc1-c1cc(-c2cccs2)[nH]c(=O)c1C#N,> 100 µM,> 100 µM,> 100 µM,> 100 µM,> 100 µM,> 100 µM,> 100 µM,> 100 µM,> 100 µM,> 100 µM,> 100 µM,> 100 µM,> 100 µM,> 100 µM,> 100 µM,> 100 µM,> 100 µM,> 100 µM,> 100 µM,> 100 µM
COC(=O)C(C(=O)C(=O)NC1=C(Cl)C(=O)c2ccccc2C1=O)c1csc(-n2nc(-c3ccccc3)cc2-c2ccccc2)n1 (stereo not given),> 100 µM,> 100 µM,> 100 µM,> 100 µM,> 100 µM,> 100 µM,> 100 µM,> 100 µM,> 100 µM,> 100 µM,,,,,,,,,,
Cc1cc(C)c(O)c(Cc2cccc(Cc3cc(C)cc(C)c3O)c2O)c1,> 100 µM,> 100 µM,> 100 µM,> 100 µM,> 100 µM,> 100 µM,> 100 µM,> 100 µM,> 100 µM,> 100 µM,,,,,,,,,,
COC(=O)N/N=C(/CCN1CCCC1)CC(c1ccccc1)c1c(O)c2ccccc2oc1=O (stereo not given),> 100 µM,> 100 µM,> 100 µM,> 100 µM,> 100 µM,> 100 µM,> 100 µM,> 100 µM,> 100 µM,> 100 µM,,,,,,,,,,
O=C1C(=O)c2ccccc2-c2ccccc21,3.2 µM,7.82 µM,3.31 µM,3.4 µM,2.21 µM,4.75 µM,3.29 µM,2.79 µM,2.25 µM,2.15 µM,1.72 µM,0.555 µM,1.79 µM,1.86 µM,0.831 µM,1.56 µM,1.61 µM,0.583 µM,1 µM,0.662 µM
O=[N+]([O-])c1cc(CCl)ccc1CCl,3.27 µM,5.17 µM,3.51 µM,3.25 µM,3.26 µM,12.6 µM,2.97 µM,3.91 µM,3.22 µM,7.17 µM,,,,,,,,,,
O=c1cc(-c2ccc(Cl)cc2)[nH]c2ncccc12,73.8 µM,37.5 µM,> 100 µM,> 100 µM,> 100 µM,> 100 µM,> 100 µM,95 µM,> 100 µM,> 100 µM,23.4 µM,,,,32.1 µM,,,,,
Clc1cc(Cl)c(Cl)c(-c2nc(-c3cccnc3)cs2)c1,81.9 µM,> 100 µM,51.4 µM,> 100 µM,> 100 µM,> 100 µM,> 100 µM,80.8 µM,98.8 µM,66.5 µM,16.2 µM,> 100 µM,18.8 µM,51.4 µM,5.3 µM,39.1 µM,24.9 µM,17.9 µM,25.6 µM,14.3 µM
CN(C)C(=O)/N=c1\ss/c(=N\C(=S)N(C)C)n1-c1ccccc1,> 65.6 µM,> 100 µM,> 100 µM,> 100 µM,47.1 µM,> 82.1 µM,> 100 µM,> 100 µM,60.2 µM,> 61.1 µM,,,,,,0.158 µM,,0.291 µM,,
